Non-standard residues stand in square brackets, D forms with d. Residues, ends and D or L forms follow the SMILES beside them. *: point of attachment. 12Ado = NCCCCCCCCCCCC(=O)O; Decanoyl = CCCCCCCCCC(=O)*; Orn = NCCC[CH](N)C(=O)O

Our source for the CC50 values is US20200399308A1, “COMPOUNDS AND METHODS FOR ELICITING ANTIMICROBIAL ACTIVITY” (Technion Research & Development Foundation Limited, priority 2018, published 2020).

The series can be described thus: Hemolytic assay. Format: cell-based. To be noted: fresh mouse red blood cells (1%); hemolysis of 50% of mouse red blood cells (1%) after 3 hours in PBS; read-out: LC50, fifty percent lethal concentration (hemolysis). The method, then:
Organization of the compounds in aqueous solution was assessed by light-scattering measurements in phosphate buffered saline (PBS; 10 mM Na2HPO4, 150 mM NaCl, pH=7.0). Hemolytic assays were performed as described elsewhere, using fresh mouse red blood cells.
The mean value (±SD) is shown for Compound C; Minimum inhibitory concentration (MIC) of compounds required to inhibit bacterial proliferation after overnight incubation.

As for `CCCCCCCCCC(=O)NC(CCCN)C(=O)NC(CCCN)C(=O)NCCCCCCCCCCCC(=O)NC(CCCN)C(N)=O` (stereo not shown) [Compound B] (Decanoyl-[Orn][Orn][12Ado][Orn]-NH2; configuration not given here), the CC50 at 3 h was over 100 µM.
